Source: PMC7669869, “AdipoR1/AdipoR2 dual agonist recovers nonalcoholic steatohepatitis and related fibrosis via endoplasmic reticulum-mitochondria axis” (Nature Communications, 2020)
Several values for one entry are separate records, joined by “and”; a condition that tells them apart may be missing. Identical values can stand only once. Non-standard residues stand in square brackets, D forms with d. Residues, ends and D or L forms follow the SMILES beside them. Nva = CCC[C@H](N)C(=O)O

What was measured:
HFD induced NASH mice = experiment: HFD mice: liver histology (HE, PAS, Oil Red O); format: in vivo, mouse; details: JT003 500 μg kg−1 i.p. daily 4 weeks, in words
Procedure: The NASH model was conducted with feeding a HFD for 16 weeks combine with a MCD diet (Methionine/Choline Deficient Diet, Medicience, China) in the last 4 weeks. Mice administered a MCS diet (Methionine/Choline Sufficient Diet, Medicience, China) serves as control group. NAFLD or NASH mice treated with JT003 for 4 weeks were used to evaluate the pharmacological effects (n = 6; 500 μg kg^−1; daily intraperitoneal injection). Food and water were provided ad libitum. The body weight of mice was examined every 3 days. The diet was renewed every 7 days. JT003 was diluted in PBS.
The levels of TG and HYP in liver tissue were detected with certain commercial assay kit (Nanjing Jiancheng Bioengineering Institute, China). Formalin-fixed liver tissues were embedded in paraffin, sectioned into 5 μm slices. After deparaffinization and rehydration of the section slices, they were stained with Haematoxylin and Eosin or Periodic Acid-Schiff. For the detection of liver collagen content, Sirius Red staining for collagen was performed. OCT-embedded frozen liver tissues were sectioned into 12 μm slices, and Oil Red O staining was performed. The cryostat-cut slices were stained with freshly prepared Oil Red O working solution for 7 min Two independent experimenters who were blinded to the treatment evaluated the staining slides and analyzed the score for steatosis, glucogen accumulation and collagen proliferation area.

[1] = test system: gene expression in LX2 cells; experiment: Quantitative RT-PCR in LX2 cells; format: cell-based, human; parameters: key to Vimentin mRNA / CTGF mRNA / OPN mRNA / IL-6 mRNA / TNF mRNA / IL-1 mRNA / TIMP2 mRNA / MMP2 mRNA / MMP9 mRNA / MMP12 mRNA / MMP13 mRNA: relative mRNA expression normalized to β-actin
Procedure: Hepatoma carcinoma cell line HepG2 and human hepatic activated stellate cell line LX2 used in this study were purchased from Type Culture Collection of the Chinese Academy of Sciences (Shanghai, China). Cells were cultured in Dulbecco’s modified Eagle’s medium (DMEM) with 10% fetal bovine serum (FBS), supplemented with 1% penicillin–streptomycin (ThermoFisher Scientific, USA) at 37 °C in a humidified atmosphere of 5% CO2. In PA (Sigma, USA) induced lipid accumulation cell model, HepG2 cells were seeded into a 6-well plate at 5E5 cells per well. 0.25 mM PA and/or 200 μM candidate peptides were co-incubated with cells for 24 h. Then Oil Red O staining was performed to evaluate the accumulation of lipid droplets. BSA (Sigma, USA) was used in this experiment as the negative control. For LX2 cells, 2E5 cells were seeded, then the adherent cells were exposed to 200 μM candidate peptides for another 48 h. Next, the cell protein was obtained and western blotting was performed. Candidate peptides were diluted in DMEM in a stock concentration of 1 M.
Liver total RNA was extracted by using Trizol reagent following the manufacture’s instruction (TransGen Biotech, China). The concentration of RNA was measured by Nanodrop 2000 (ThermoFisher Scientific, USA). cDNA was transcribed from 10ug total RNA with First Strand cDNA synthesis Super Mix (TransGen Biotech, China). The cDNA was diluted 1/50 and 1.0 uL were used as a template for qPCR. qPCR was performed with SYBR Green qPCR Super Mix (TransGen Biotech, China) in the Light Cycler 480 Real-Time PCR System (Roche, Swiss). Reference gene β-actin was used for data normalization. mRNA expression was analyzed with specific primers listed in Supplementary Table 2.

[2] = Figure 6a left, LX2 cells, JT003 vs Vehicle, single replicates, n = 4
[3] = Figure 6a right, LX2 cells, JT003 vs Vehicle, single replicates, n = 4

## CCC[C@H](NC(=O)[C@@H]1CCCN1)C(=O)N[C@@H](CC(C)C)C(=O)N[C@@H](Cc1ccc(O)cc1)C(=O)N[C@@H](Cc1ccc(O)cc1)C(=O)N[C@@H](Cc1ccccc1)C(=O)N[C@@H](C)C(N)=O [JT003] (H-P[Nva]LYYFA-NH2)
HFD induced NASH mice
  glycogen over accumulation (PAS staining and hepatocyte glycogen analysis): largely eliminated
  lipid droplets in the liver (Oil red o staining): remarkably decreased lipid droplets
  steatosis and inflammation area (HE staining): decreased
[1]; [2]
  MMP2 mRNA: 1.293 and 0.7704 and 1.1819 and 1.0719
  MMP9 mRNA: 2.131 and 1.538 and 2.384 and 1.884
  MMP12 mRNA: 1.826 and 1.7 and 2.413 and 1.763
  MMP13 mRNA: 2.514 and 2.381 and 3.247 and 2.347
  TIMP2 mRNA: 0.8037 and 0.8728 and 0.6883 and 0.7883
[1]; [3]
  CTGF mRNA: 0.7417 and 0.5541 and 0.6479 and 0.621
  IL-1 mRNA: 0.9119 and 0.6477 and 0.5242 and 0.686
  IL-6 mRNA: 0.6335 and 0.6954 and 0.6645 and 0.66
  OPN mRNA: 0.8619 and 0.7815 and 0.9867 and 0.8941
  TNF mRNA: 0.6949 and 0.8263 and 0.7906 and 0.7334
  Vimentin mRNA: 0.6199 and 0.6972 and 0.6586 and 0.5779
[1]; JT003 vs Vehicle, replicate 1
  IL-1a mRNA, relative expression, Supplementary Figure 15a: 0.9119
  IL-6 mRNA, relative expression, Supplementary Figure 15a: 1.034
  TNFa mRNA, relative expression, Supplementary Figure 15a: 0.6949
  iNOS mRNA, relative expression, Supplementary Figure 15a: 1.242
[1]; JT003 vs Vehicle, replicate 2
  IL-1a mRNA, relative expression, Supplementary Figure 15a: 0.5774
  IL-6 mRNA, relative expression, Supplementary Figure 15a: 0.932
  TNFa mRNA, relative expression, Supplementary Figure 15a: 0.8263
  iNOS mRNA, relative expression, Supplementary Figure 15a: 1.188
[1]; JT003 vs Vehicle, replicate 3
  IL-1a mRNA, relative expression, Supplementary Figure 15a: 0.5946
  IL-6 mRNA, relative expression, Supplementary Figure 15a: 0.9828
  TNFa mRNA, relative expression, Supplementary Figure 15a: 0.7606
  iNOS mRNA, relative expression, Supplementary Figure 15a: 0.8438
[1]; JT003 vs Vehicle, replicate 4
  IL-1a mRNA, relative expression, Supplementary Figure 15a: 0.706
  IL-6 mRNA, relative expression, Supplementary Figure 15a: 0.9774
  TNFa mRNA, relative expression, Supplementary Figure 15a: 0.7834
  iNOS mRNA, relative expression, Supplementary Figure 15a: 0.9516
[1]; LX2, 200 μM JT003, in words
  HSC activation factors (Vimentin, CTGF, OPN, IL-6, TNFα and IL-1α): significantly suppressed
  expression of ER-mitochondrial function-related markers: improved
  expression of genes involved in ECM accumulation (TIMP1) and degradation (MMP9, MMP12, MMP13): notably altered
  inflammation related genes (TNFα, IL-1α, IL-6 and iNOS): suppressed
